As usually defined, the pIC50 is −log10 of the IC50, conventionally taken in molar units.

pIC50: −log10 of the molar value.

SAE, sequence (Q9UBT2 whole entry): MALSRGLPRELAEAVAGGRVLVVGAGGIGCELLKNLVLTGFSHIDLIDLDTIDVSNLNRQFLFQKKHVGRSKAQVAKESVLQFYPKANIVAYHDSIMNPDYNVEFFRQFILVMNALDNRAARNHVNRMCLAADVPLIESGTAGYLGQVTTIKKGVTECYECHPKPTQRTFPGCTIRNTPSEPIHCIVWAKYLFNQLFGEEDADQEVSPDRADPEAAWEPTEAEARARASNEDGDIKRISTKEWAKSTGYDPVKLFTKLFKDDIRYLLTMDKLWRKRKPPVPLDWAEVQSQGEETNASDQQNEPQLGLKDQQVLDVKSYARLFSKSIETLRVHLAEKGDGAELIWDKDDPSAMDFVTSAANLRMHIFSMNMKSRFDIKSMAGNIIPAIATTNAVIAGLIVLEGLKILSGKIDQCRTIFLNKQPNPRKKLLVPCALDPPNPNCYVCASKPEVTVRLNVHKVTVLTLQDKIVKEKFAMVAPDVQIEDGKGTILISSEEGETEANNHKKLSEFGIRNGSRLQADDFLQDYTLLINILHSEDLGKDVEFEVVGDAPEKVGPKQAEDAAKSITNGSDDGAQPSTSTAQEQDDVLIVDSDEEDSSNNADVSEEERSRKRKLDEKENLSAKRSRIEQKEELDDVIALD
SAE, sequence (Q9UBE0 whole entry partner): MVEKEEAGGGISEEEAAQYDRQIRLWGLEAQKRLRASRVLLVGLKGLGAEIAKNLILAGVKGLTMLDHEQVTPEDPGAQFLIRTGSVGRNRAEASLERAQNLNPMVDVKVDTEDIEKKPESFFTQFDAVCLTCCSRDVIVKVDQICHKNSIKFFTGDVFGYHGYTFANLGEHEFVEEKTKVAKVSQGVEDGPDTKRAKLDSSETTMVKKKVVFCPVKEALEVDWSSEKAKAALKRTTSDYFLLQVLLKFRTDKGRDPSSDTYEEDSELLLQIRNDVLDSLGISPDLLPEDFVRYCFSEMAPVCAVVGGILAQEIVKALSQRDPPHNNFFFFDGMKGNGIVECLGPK

The test addresses SAE (Homo sapiens (Human), UniProt Q9UBT2). As to the kind of experiment: In vitro inhibitory activity assay against SAE (SUMO-2/3 immunofluorescence in HCT116 cells). Type of test: cell-based. The following applies: 6 h incubation, class symbols, read-out: SUMO IF IC50. Summed up: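 HCT116 cells treated with compounds for 6 h at 37 °C, then fixed, permeabilized and immunostained for SUMO-2/3 with FITC secondary detection. Fluorescence compared with DMSO control to give inhibition rate and IC50.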
As for `NS(=O)(=O)OC[C@H]1C[C@@H](Nc2ncncc2C(=O)c2cc3c(s2)CCC[C@]32NCCc3cc(F)c(F)cc32)C[C@@H]1O` [Compound 206], the pIC50 is ≥ 7.30.

Regarding `NS(=O)(=O)OC[C@H]1C[C@@H](Nc2ncncc2C(=O)c2cc3c(s2)CCC[C@]32NCCc3cc(F)c(Cl)cc32)C[C@@H]1O` [Compound 207], the pIC50 is ≥ 7.30.

Consider `NS(=O)(=O)OC[C@H]1C[C@@H](Nc2ncncc2C(=O)c2cc3c(s2)CCC[C@]32NCCc3cc(Cl)c(Cl)cc32)C[C@@H]1O` [Compound 208], for which the pIC50 is ≥ 7.30.

Take `N#Cc1cc2c(cc1Cl)[C@@]1(CCCc3sc(C(=O)c4cncnc4N[C@@H]4C[C@H](COS(N)(=O)=O)[C@@H](O)C4)cc31)NCC2` [Compound 210]: the pIC50 is ≥ 7.30.

Consider `COc1cc2c(cc1Cl)[C@@]1(CCCc3sc(C(=O)c4cncnc4N[C@@H]4C[C@H](COS(N)(=O)=O)[C@@H](O)C4)cc31)NCC2` [Compound 211], for which the pIC50 was 6.70 to 7.30.

For the compound `NS(=O)(=O)OC[C@H]1C[C@@H](Nc2ncncc2C(=O)c2cc3c(s2)CCC[C@]32NCCc3cc(F)c(Cl)c(F)c32)C[C@@H]1O` [Compound 212], the pIC50 is ≥ 7.30.

On to `NS(=O)(=O)OC[C@H]1C[C@@H](Nc2ncncc2C(=O)c2cc3c(s2)CCC[C@]32NCCc3cc(Cl)c(F)cc32)C[C@@H]1O` [Compound 213], for which the pIC50 is ≥ 7.30.

Regarding `NS(=O)(=O)OC[C@H]1C[C@@H](Nc2ncncc2C(=O)c2cc3c(s2)CCC[C@]32NCCc3ccncc32)C[C@@H]1O` [Compound 214], the pIC50 is 6.70 to 7.30.

As for `NS(=O)(=O)OC[C@H]1C[C@@H](Nc2ncncc2C(=O)c2cc3c(s2)CCC[C@]32NCCc3cc(Cl)ncc32)C[C@@H]1O` [Compound 215], the pIC50 is 6.70 to 7.30.

Regarding `NS(=O)(=O)OC[C@H]1C[C@@H](Nc2ncncc2C(=O)c2cc3c(s2)C=CC[C@]32NCCc3ccc(Cl)cc32)C[C@@H]1O` [Compound 216], the pIC50 was ≥ 7.30.

On to `NS(=O)(=O)OC[C@H]1C[C@@H](Nc2ncncc2C(=O)c2cc3c(s2)CC=C[C@]32NCCc3ccc(Cl)cc32)C[C@@H]1O` [Compound 217], for which the pIC50 is ≥ 7.30.

With `NS(=O)(=O)OC[C@H]1C[C@@H](Nc2ncncc2C(=O)c2cc3c(s2)OCC[C@]32NCCc3ccc(Cl)cc32)C[C@@H]1O` [Compound 218], the pIC50 was 6.70 to 7.30.

With `NS(=O)(=O)OC[C@H]1C[C@@H](Nc2ncncc2C(=O)c2cc3c(s2)CCC[C@]32NCC3(CC3)c3ccc(Cl)cc32)C[C@@H]1O` [Compound 219], the pIC50 is ≥ 7.30.

In the case of `NS(=O)(=O)OC[C@H]1C[C@@H](Nc2ncncc2C(=O)c2cc3c(s2)CCC[C@]32NC3(CC3)Cc3ccc(Cl)cc32)C[C@@H]1O` [Compound 220], the pIC50 is 6.70 to 7.30.

Turning to `NS(=O)(=O)OC[C@H]1C[C@@H](Nc2ncncc2C(=O)c2cc3c(s2)CCC[C@@]32OCCc3ccc(Cl)cc32)C[C@@H]1O` [Compound 221], the pIC50 is < 6.70.

In the case of `NS(=O)(=O)OC[C@H]1C[C@@H](Nc2ncncc2C(=O)c2cc3c(s2)CCC[C@]32OCCc3ccc(Cl)cc32)C[C@@H]1O` [Compound 222], the pIC50 was ≥ 7.30.

For `Cc1ccc2c(c1)[C@@]1(CCc3sc(C(=O)c4cncnc4N[C@@H]4C[C@H](COS(N)(=O)=O)[C@@H](O)C4)cc31)NCC2` [Compound 223], the pIC50 is 6.70 to 7.30.

With `NS(=O)(=O)OC[C@H]1C[C@@H](Nc2ncncc2C(=O)c2cc3c(s2)CC[C@]32NCCc3ccc(C4CC4)cc32)C[C@@H]1O` [Compound 224], the pIC50 was 6.70 to 7.30.

On to `COc1ccc2c(c1)[C@@]1(CCc3sc(C(=O)c4cncnc4N[C@@H]4C[C@H](COS(N)(=O)=O)[C@@H](O)C4)cc31)NCC2` [Compound 225], for which the pIC50 was 6.70 to 7.30.

As for `NS(=O)(=O)OC[C@H]1C[C@@H](Nc2ncncc2C(=O)c2cc3c(s2)CC[C@]32NCCc3ccc(C(F)(F)F)cc32)C[C@@H]1O` [Compound 226], the pIC50 is 6.70 to 7.30.

Turning to `NS(=O)(=O)OC[C@H]1C[C@@H](Nc2ncncc2C(=O)c2cc3c(s2)CC[C@]32NCCc3cc(F)c(F)cc32)C[C@@H]1O` [Compound 227], the pIC50 is ≥ 7.30.

Take `NS(=O)(=O)OC[C@H]1C[C@@H](Nc2ncncc2C(=O)c2cc3c(s2)CC[C@]32NCCc3cc(F)c(Cl)cc32)C[C@@H]1O` [Compound 228]: the pIC50 is ≥ 7.30.

In the case of `NS(=O)(=O)OC[C@H]1C[C@@H](Nc2ncncc2C(=O)c2cc3c(s2)CC[C@]32NCCc3cc(Cl)c(Cl)cc32)C[C@@H]1O` [Compound 229], the pIC50 was ≥ 7.30.

On to `Cc1cc2c(cc1Cl)[C@@]1(CCc3sc(C(=O)c4cncnc4N[C@@H]4C[C@H](COS(N)(=O)=O)[C@@H](O)C4)cc31)NCC2` [Compound 230], for which the pIC50 is ≥ 7.30.

On to `N#Cc1cc2c(cc1Cl)[C@@]1(CCc3sc(C(=O)c4cncnc4N[C@@H]4C[C@H](COS(N)(=O)=O)[C@@H](O)C4)cc31)NCC2` [Compound 231], for which the pIC50 was ≥ 7.30.

For the compound `COc1cc2c(cc1Cl)[C@@]1(CCc3sc(C(=O)c4cncnc4N[C@@H]4C[C@H](COS(N)(=O)=O)[C@@H](O)C4)cc31)NCC2` [Compound 232], the pIC50 is 6.70 to 7.30.

For `NS(=O)(=O)OC[C@H]1C[C@@H](Nc2ncncc2C(=O)c2cc3c(s2)CC[C@]32NCCc3cc(F)c(Cl)c(F)c32)C[C@@H]1O` [Compound 233], the pIC50 was ≥ 7.30.

`NS(=O)(=O)OC[C@H]1C[C@@H](Nc2ncncc2C(=O)c2cc3c(s2)CC[C@]32NCCc3cc(Cl)c(F)cc32)C[C@@H]1O` [Compound 234]: the pIC50 is ≥ 7.30.

Regarding `NS(=O)(=O)OC[C@H]1C[C@@H](Nc2ncncc2C(=O)c2cc3c(s2)CC[C@]32NCCc3ccncc32)C[C@@H]1O` [Compound 235], the pIC50 is 6.70 to 7.30.

For the compound `NS(=O)(=O)OC[C@H]1C[C@@H](Nc2ncncc2C(=O)c2cc3c(s2)CC[C@]32NCCc3cc(Cl)ncc32)C[C@@H]1O` [Compound 236], the pIC50 is 6.70 to 7.30.

Consider `[2H]C1([2H])Cc2ccc(Cl)cc2[C@@]2(C=Cc3sc(C(=O)c4cncnc4N[C@@H]4C[C@H](COS(N)(=O)=O)[C@@H](O)C4)cc32)N1` [Compound 237], for which the pIC50 is ≥ 7.30.

Regarding `[2H]C1([2H])CN[C@]2(C=Cc3sc(C(=O)c4cncnc4N[C@@H]4C[C@H](COS(N)(=O)=O)[C@@H](O)C4)cc32)c2cc(Cl)ccc21` [Compound 238], the pIC50 was ≥ 7.30.

As for `NS(=O)(=O)OC[C@H]1C[C@@H](Nc2ncncc2C(=O)c2cc3c(s2)CO[C@]32NCCc3ccc(Cl)cc32)C[C@@H]1O` [Compound 239], the pIC50 is 6.70 to 7.30.

With `NS(=O)(=O)OC[C@H]1C[C@@H](Nc2ncncc2C(=O)c2cc3c(s2)CC[C@]32NCC3(CC3)c3ccc(Cl)cc32)C[C@@H]1O` [Compound 240], the pIC50 is 6.70 to 7.30.

Turning to `NS(=O)(=O)OC[C@H]1C[C@@H](Nc2ncncc2C(=O)c2cc3c(s2)CC[C@]32NC3(CC3)Cc3ccc(Cl)cc32)C[C@@H]1O` [Compound 241], the pIC50 was 6.70 to 7.30.

For `NS(=O)(=O)OC[C@H]1C[C@@H](Nc2ncncc2C(=O)c2cc3c(s2)CC[C@@]32OCCc3ccc(Cl)cc32)C[C@@H]1O` [Compound 242], the pIC50 was < 6.70.

Take `NS(=O)(=O)OC[C@H]1C[C@@H](Nc2ncncc2C(=O)c2cc3c(s2)CC[C@]32OCCc3ccc(Cl)cc32)C[C@@H]1O` [Compound 243]: the pIC50 was ≥ 7.30.

`NS(=O)(=O)OC[C@H]1C[C@@H](Nc2ncncc2C(=O)c2cc3c(s2)CCCC32OCCc3ccccc32)C[C@@H]1O` (stereo partly shown) [Compound 244]: the pIC50 was < 6.70.

In the case of `NS(=O)(=O)OC[C@H]1C[C@@H](Nc2ncncc2C(=O)c2cc3c(s2)CCC[C@@]32OCCc3ccccc32)C[C@@H]1O` [Compound 245], the pIC50 is < 6.70.

As for `NS(=O)(=O)OC[C@H]1C[C@@H](Nc2ncncc2C(=O)c2cc3c(s2)CCC[C@]32OCCc3ccccc32)C[C@@H]1O` [Compound 246], the pIC50 was 6.70 to 7.30.

As for `NS(=O)(=O)OC[C@H]1C[C@@H](Nc2ncncc2C(=O)c2cc3c(s2)CCCC32OCCc3ccc(F)cc32)C[C@@H]1O` (stereo partly shown) [Compound 247], the pIC50 is 6.70 to 7.30.

As for `NS(=O)(=O)OC[C@H]1C[C@@H](Nc2ncncc2C(=O)c2cc3c(s2)CCC[C@@]32OCCc3ccc(F)cc32)C[C@@H]1O` [Compound 248], the pIC50 is < 6.70.

As to `NS(=O)(=O)OC[C@H]1C[C@@H](Nc2ncncc2C(=O)c2cc3c(s2)CCC[C@]32OCCc3ccc(F)cc32)C[C@@H]1O` [Compound 249], the pIC50 was ≥ 7.30.

For `N#Cc1ccc2c(c1)C1(CCCc3sc(C(=O)c4cncnc4N[C@@H]4C[C@H](COS(N)(=O)=O)[C@@H](O)C4)cc31)OCC2` (stereo partly shown) [Compound 250], the pIC50 is 6.70 to 7.30.

For the compound `N#Cc1ccc2c(c1)[C@]1(CCCc3sc(C(=O)c4cncnc4N[C@@H]4C[C@H](COS(N)(=O)=O)[C@@H](O)C4)cc31)OCC2` [Compound 251], the pIC50 was < 6.70.

`N#Cc1ccc2c(c1)[C@@]1(CCCc3sc(C(=O)c4cncnc4N[C@@H]4C[C@H](COS(N)(=O)=O)[C@@H](O)C4)cc31)OCC2` [Compound 252]: the pIC50 was ≥ 7.30.

For `CN1Cc2sc(C(=O)c3cncnc3N[C@@H]3C[C@H](COS(N)(=O)=O)[C@@H](O)C3)cc2C2(C1)OCCc1ccccc12` (stereo partly shown) [Compound 253], the pIC50 is 6.70 to 7.30.

For the compound `CN1Cc2sc(C(=O)c3cncnc3N[C@@H]3C[C@H](COS(N)(=O)=O)[C@@H](O)C3)cc2[C@@]2(C1)OCCc1ccccc12` [Compound 254], the pIC50 is < 6.70.

With `CN1Cc2sc(C(=O)c3cncnc3N[C@@H]3C[C@H](COS(N)(=O)=O)[C@@H](O)C3)cc2[C@]2(C1)OCCc1ccccc12` [Compound 255], the pIC50 was 6.70 to 7.30.

As to `CN1Cc2sc(C(=O)c3cncnc3N[C@@H]3C[C@H](COS(N)(=O)=O)[C@@H](O)C3)cc2C2(C1)OCCc1ccc(F)cc12` (stereo partly shown) [Compound 256], the pIC50 was 6.70 to 7.30.

For `CN1Cc2sc(C(=O)c3cncnc3N[C@@H]3C[C@H](COS(N)(=O)=O)[C@@H](O)C3)cc2[C@@]2(C1)OCCc1ccc(F)cc12` [Compound 257], the pIC50 was < 6.70.

For `CN1Cc2sc(C(=O)c3cncnc3N[C@@H]3C[C@H](COS(N)(=O)=O)[C@@H](O)C3)cc2[C@]2(C1)OCCc1ccc(F)cc12` [Compound 258], the pIC50 is ≥ 7.30.

The record behind these values is US20260035382A1, “COMPOUNDS AS SUMO ACTIVATING ENZYME INHIBITORS” (WIGEN BIOMEDICINE TECHNOLOGY (SHANGHAI) CO., LTD., priority 2022, published 2026).
